Laboratory results taken from PMC7287031 (Pharmacology Research & Perspectives, 2020).
Where two headings read alike, the source gives them in different places.

What was measured:
CYP3A4 = biological target: T1, CYP3A4 (Homo sapiens, UniProt P08684); assay: Enzyme kinetics with recombinant CYP3A4 and scaling to HLM; assay type: in vitro ADME
T1 construct: purchased BD Biosciences
Experimental: (§1) In vitro incubations were carried out in 100‐mM potassium phosphate buffer (pH 7.4) and 5‐mM MgCl2 with a total volume of 200 µL. Substrate and either human liver microsomes (HLM, BD Biosciences, mixed gender pool of n = 50) or recombinant human enzymes (BD Biosciences) were added and pre‐incubated for 3 minutes at 37°C. The reaction was started by addition of a fresh solution of NADPH (1 mmol/L final concentration). The samples were incubated at 37°C with agitation of 500 rpm. For incubations with CYP2A6, CYP2C9, CYP2C18, and CYP4A11, the phosphate buffer was replaced by TRIS buffer (100 mmol/L, pH 7.4) and for flavin‐containing monooxygenases (FMOs), a glycine buffer (50 mM, pH 9.5) was used.
The enzymatic reaction was stopped and the protein was precipitated by addition of an equal volume of methanol. […] The supernatant was withdrawn. Aliquots were analyzed by LSC and the supernatant was diluted with water to obtain a final solution containing less than 20% of the organic solvent. For samples of low substrate concentration, supernatants were evaporated to dryness under nitrogen, then re‐suspended in water containing less than 20% of methanol. Samples were analyzed by HPLC combined with radiodetection.

Rat milk excretion study = assay type: in vivo; settings: female, milk (relative to plasma), lactating rats, read-out: milk exposure (AUCinf) relative to plasma exposure
Experimental: Metabolite profiling was conducted on plasma, urine, bile, and feces samples in the rat and dog ADME studies, and further metabolite profiling on plasma and milk was conducted in a dedicated rat milk excretion study.
Plasma samples obtained from these studies were extracted with equal volumes of acetonitrile. Additional extractions of the protein pellet with acetonitrile and/or acetone were conducted as needed to maximize radioactivity recovery. Feces samples were initially extracted with two to four volumes of acetonitrile. Additional extractions of the pellet following centrifugation and removal of supernatant were conducted with acetonitrile and/or acetone as needed to maximize radioactivity recovery. Urine and bile samples were analyzed directly following centrifugation. Radioactivity recoveries following the centrifugation step were measured by LSC. Milk samples were extracted with two volumes of acetonitrile, following centrifugation and removal of supernatant, the pellets were re‐suspended in 100 µL of water and re‐extracted with 200 µL acetonitrile.

[1] = Tissue distribution by quantitative whole-body autoradiography (QWBA); assay type: in vivo; settings: rat QWBA
Experimental: ADME studies (including QWBA in pigmented and non‐pigmented rats) using radiolabeled ribociclib were conducted in rat and dog. Relevant institutional and national guides for the care and use of laboratory animals were followed.
QWBA studies were conducted with the tritium label in Hanover Wistar and partially pigmented Long‐Evans rats. A further QWBA study was conducted with the carbon‐14 label in male Long Evans rats in order to support the dosimetry calculation for the human ADME study. Briefly, 40‐µm thick lengthwise dehydrated whole body sections were exposed for 1 day to Fuji BAS III imaging plates (Fuji Photo Film Co., Ltd., J‐Tokyo) in a lead‐shielded box and room temperature, and scanned in a Fuji BAS 5000 phosphor imager at a 50‐µm scanning step. Concentrations of total radiolabeled components in the tissues were determined by comparative densitometry and digital analysis of the autoradiogram; blood samples of known radioactivity concentrations processed under the same conditions as the samples to analyze were used as calibrators.

[2] = system: hepatic P450 isoenzymes (total); assay: Biotransformation by a panel of 17 recombinant human CYPs and three FMOs; assay type: in vitro ADME; settings: human, recombinant human CYPs, scaled to human liver microsomes, pH 7.4; sum over CYPs, based on recombinant enzyme data; read-out: Rel.Clint,u in HLM, total of hepatic P450 isoenzymes
Experimental: as §1
(§2) The enzymatic reaction was stopped and the protein was precipitated by addition of an equal volume of methanol. After 30 min at −80°C, the samples were centrifuged at 30'000 x g for 15 min. The supernatant was withdrawn. Aliquots were analyzed by LSC and the supernatant was diluted with water to obtain a final solution containing less than 20% of the organic solvent. For samples of low substrate concentration, supernatants were evaporated to dryness under nitrogen, then re‐suspended in water containing less than 20% of methanol. Samples were analyzed by HPLC combined with radiodetection.
(§3) The relative contribution of CYP enzymes to oxidative hepatic metabolism was determined using their Clint values multiplied by the unbound fraction in microsomes and their abundances in human liver microsomes. ^15 Among the hepatic P450 enzymes, CYP3A4 contributed predominantly (97%) to metabolism in human liver microsomes (Table 1) with negligible fraction metabolized by CYP1A2 (1.1%), CYP2J2 (0.8%), and CYP3A5 (1.2%).

[3] = system: recombinant human CYPs and FMOs; assay: as above; assay type: in vitro ADME
Experimental: as §1, §2, §3

[4] = Dog pharmacokinetic studies: plasma PK of ribociclib after single i.v. or oral dose; assay type: in vivo; settings: male; for half-life: read-out: t½ (converted)
Experimental: ADME studies (including QWBA in pigmented and non‐pigmented rats) using radiolabeled ribociclib were conducted in rat and dog. Relevant institutional and national guides for the care and use of laboratory animals were followed. […]

[5] = Placental transfer (fetal vs maternal plasma), rabbit embryofetal development study; assay type: in vivo; settings: female, fetal plasma (relative to maternal plasma), rabbits, 3 hours post dose, Day 20 postcoitum, read-out: Fetal plasma concentration as % of maternal plasma concentration
[6] = Beagle, 0.5 mg/kg, dog m (3), po, 0.5 mg base/kg
[7] = Beagle, 5 mg/kg, dog m (3), po, 5.0 mg base/kg
[8] = Beagle, dog m (4), po, 18.9 mg base/kg

T1 sequence (P08684 whole entry): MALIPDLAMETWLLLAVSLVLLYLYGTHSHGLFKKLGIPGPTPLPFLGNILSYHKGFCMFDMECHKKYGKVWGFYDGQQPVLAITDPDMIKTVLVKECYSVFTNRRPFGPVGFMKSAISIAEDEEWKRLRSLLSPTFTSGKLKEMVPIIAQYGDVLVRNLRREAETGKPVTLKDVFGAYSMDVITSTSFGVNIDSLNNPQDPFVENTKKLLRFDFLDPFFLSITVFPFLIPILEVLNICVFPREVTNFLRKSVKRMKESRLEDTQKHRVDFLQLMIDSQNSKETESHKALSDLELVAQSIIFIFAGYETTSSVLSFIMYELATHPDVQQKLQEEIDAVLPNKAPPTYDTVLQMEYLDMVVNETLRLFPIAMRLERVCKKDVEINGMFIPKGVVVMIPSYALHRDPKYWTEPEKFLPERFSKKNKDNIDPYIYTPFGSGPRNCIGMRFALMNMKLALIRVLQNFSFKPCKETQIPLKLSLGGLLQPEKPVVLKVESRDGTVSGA

With `CN(C)C(=O)c1cc2cnc(Nc3ccc(N4CCNCC4)cn3)nc2n1C1CCCC1` [ribociclib, Ribociclib] the “fm,CYP” value (CYP3A4; CYP3A4, share of total CYP-mediated metabolism in HLM) was 97%, the fumic (CYP3A4; CYP3A4 incubation) was 0.83 and the Vmax (CYP3A4; recombinant CYP3A4, substrate inhibition model) was 12.3 ± 5.2 pmol/min/pmol. For the same compound, the Kp (Rat milk excretion study) was 3.6, the “time of last measurable concentration (total radioactivity)” value (from here on “time of last measurable concentration”) ([1]; 52 of 58 tissues investigated) was at most 48 h and the “time of last measurable concentration” value ([1]; eyes and meninges, last observation time point) was 840 h. The “tissue distribution of total radioactivity” value ([1]; intravenous or oral dose) was “marked distribution into the extravascular compartment, except for brain”, the “time of last measurable concentration” value ([1]; lymph nodes, preputial gland, testis) was 168 h and the microsomal CLint [2] was 49.2 µL/min/mg. The “turnover by recombinant enzymes” value ([3]; CYP1A2, CYP3A5, FMO3, and FMO5, 0.75 and 20 µmol/L, 15 min) was “Low metabolic activities”, the “turnover by recombinant enzymes” value ([3]; CYP1B1, CYP2A6, CYP2B6, CYP2C8, CYP2C9, CYP2C18, CYP2C19, CYP2D6, CYP2E1, CYP4A11, and CYP4F2) was “No metabolic activities were detected” and the “turnover by recombinant enzymes” value ([3]; CYP3A4, CYP2J2, CYP1A1, FMO1, and FM03, 0.75 and 20 µmol/L, 15 min) was “high turnover”. It also gave a Cmax [4, 6] of 10.4 ng/mL, a bioavailability [4, 6] of 64% and an AUC(0-t) ([4]; Beagle, 0.5 mg/kg, dog m (3), po, 0.5 mg base/kg, AUC interval 24 h) of 155 ng·h/mL. It also gave a Cmax [4, 7] of 206 ng/mL, a Tmax [4, 7] of 1 h and an AUC(0-t) ([4]; Beagle, 5 mg/kg, dog m (3), po, 5.0 mg base/kg, AUC interval 168 h) of 4520 ng·h/mL. For the same compound, the half-life [4, 7] was 38.8 h, the Cmax [4, 8] was 1220 ng/mL and the Tmax [4, 8] was 1 h. It also gave a bioavailability [4, 8] of 87%, an AUC(0-t) ([4]; Beagle, dog m (4), po, 18.9 mg base/kg, AUC interval 48 h) of 21100 ng·h/mL and a half-life [4, 8] of 12.6 h. The AUC(0-t) ([4]; Beagle, iv, 0.2 mg/kg, dog m (3), 0.2 mg base/kg, AUC interval 24 h) was 105 ng·h/mL, the clearance ([4]; iv, dog m (3), 0.2 mg base/kg) was 31.7 mL/min/kg and the Vd ([4]; iv, dog m (3), i.v., 0.2 mg base/kg, read-out: Vss) was 27.9 L/kg. It also gave a half-life ([4]; iv, dog m (3), i.v., 0.2 mg base/kg) of 18.1 h and a Kp at 3 h [5] of 0.06.
